# In PubChem BioAssay (NCI):
#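 Values below derive from 48-hour exposures of cells grown in 96-well plates, with endpoints linearly interpolated between the two concentrations bracketing the appropriate inhibition level. Here, GI50 denotes the concentration required for 50% inhibition of growth. At the TGI there is no net growth.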
# Assays:
# Assay in all cases: inhibition of tumour cell growth, NCI panel, 48 h
# SN12C renal = test system: SN12C renal
# MDA-MB-231 breast = test system: MDA-MB-231 breast
# SK-OV-3 ovarian = test system: SK-OV-3 ovarian
# UACC-257 melanoma = test system: UACC-257 melanoma
# MOLT-4 leukemia = test system: MOLT-4 leukemia
# T-47D breast = test system: T-47D breast
# IGROV1 ovarian = test system: IGROV1 ovarian
# SW-620 colon = test system: SW-620 colon
# LOX IMVI melanoma = test system: LOX IMVI melanoma
# K-562 leukemia = test system: K-562 leukemia
# MCF7 breast = test system: MCF7 breast
# SF-295 CNS = test system: SF-295 CNS
# HCC-2998 colon = test system: HCC-2998 colon
# A549 NSCLC = test system: A549 NSCLC
# DU-145 prostate = test system: DU-145 prostate
# NCI-H460 lung = test system: NCI-H460 lung
# BT-549 breast = test system: BT-549 breast
# HCT-116 colon = test system: HCT-116 colon
# SNB-75 CNS = test system: SNB-75 CNS
# NCI/ADR-RES ovarian = test system: NCI/ADR-RES ovarian
# SK-MEL-5 melanoma = test system: SK-MEL-5 melanoma
# OVCAR-3 ovarian = test system: OVCAR-3 ovarian
# HS 578T breast = test system: HS 578T breast
# M14 melanoma = test system: M14 melanoma
# U251 CNS = test system: U251 CNS
# UO-31 renal = test system: UO-31 renal
# HCT-15 colon = test system: HCT-15 colon
# HOP-62 NSCLC = test system: HOP-62 NSCLC
# OVCAR-8 ovarian = test system: OVCAR-8 ovarian
# NCI-H226 lung = test system: NCI-H226 lung
# SR leukemia = test system: SR leukemia
# SNB-19 CNS = test system: SNB-19 CNS
# MALME-3M melanoma = test system: MALME-3M melanoma
# HL-60(TB) leukemia = test system: HL-60(TB) leukemia
# SK-MEL-28 melanoma = test system: SK-MEL-28 melanoma
# EKVX NSCLC = test system: EKVX NSCLC
# OVCAR-4 ovarian = test system: OVCAR-4 ovarian
# NCI-H23 lung = test system: NCI-H23 lung
# TK-10 renal = test system: TK-10 renal
# CCRF-CEM leukemia = test system: CCRF-CEM leukemia
# KM12 colon = test system: KM12 colon
# HOP-92 NSCLC = test system: HOP-92 NSCLC
# MDA-MB-435 = test system: MDA-MB-435
# HT29 colon = test system: HT29 colon
# 786-0 renal = test system: 786-0 renal
# ACHN renal = test system: ACHN renal
# RXF 393 renal = test system: RXF 393 renal
# RPMI-8226 leukemia = test system: RPMI-8226 leukemia
# OVCAR-5 ovarian = test system: OVCAR-5 ovarian
# UACC-62 melanoma = test system: UACC-62 melanoma
# SF-268 CNS = test system: SF-268 CNS
# NCI-H522 lung = test system: NCI-H522 lung
# SF-539 CNS = test system: SF-539 CNS
# PC-3 prostate = test system: PC-3 prostate
# CAKI-1 renal = test system: CAKI-1 renal
# COLO 205 colon = test system: COLO 205 colon
# A498 renal = test system: A498 renal
# SK-MEL-2 melanoma = test system: SK-MEL-2 melanoma
compound,measurement,setting,value
CC(=O)Oc1ccccc1C(=O)Nc1cc(C(C)C)ccc1C,GI50,SN12C renal,3.73 µM
same,TGI,SN12C renal,20.7 µM
same,GI50,MDA-MB-231 breast,9.92 µM
same,TGI,MDA-MB-231 breast,50.4 µM
same,GI50,SK-OV-3 ovarian,5.88 µM
same,TGI,SK-OV-3 ovarian,41.6 µM
same,GI50,UACC-257 melanoma,4.33 µM
same,TGI,UACC-257 melanoma,33 µM
same,GI50,MOLT-4 leukemia,4.2 µM
same,TGI,MOLT-4 leukemia,29.7 µM
same,GI50,T-47D breast,2.62 µM
same,TGI,T-47D breast,> 100 µM
same,GI50,IGROV1 ovarian,4.44 µM
same,TGI,IGROV1 ovarian,45.7 µM
same,GI50,SW-620 colon,9.34 µM
same,TGI,SW-620 colon,28.5 µM
same,GI50,LOX IMVI melanoma,3.94 µM
same,TGI,LOX IMVI melanoma,15.2 µM
same,GI50,K-562 leukemia,3.8 µM
same,TGI,K-562 leukemia,56.5 µM
same,GI50,MCF7 breast,3.83 µM
same,TGI,MCF7 breast,42.2 µM
same,GI50,SF-295 CNS,4.46 µM
same,TGI,SF-295 CNS,18.8 µM
same,GI50,HCC-2998 colon,4.62 µM
same,TGI,HCC-2998 colon,20 µM
same,GI50,A549 NSCLC,5.01 µM
same,TGI,A549 NSCLC,> 100 µM
same,GI50,DU-145 prostate,8.38 µM
same,TGI,DU-145 prostate,> 100 µM
same,GI50,NCI-H460 lung,3.99 µM
same,TGI,NCI-H460 lung,> 100 µM
same,GI50,BT-549 breast,2.63 µM
same,TGI,BT-549 breast,8.34 µM
same,GI50,HCT-116 colon,4.49 µM
same,TGI,HCT-116 colon,16.7 µM
same,GI50,SNB-75 CNS,4.09 µM
same,TGI,SNB-75 CNS,27.6 µM
same,GI50,NCI/ADR-RES ovarian,3.74 µM
same,TGI,NCI/ADR-RES ovarian,24.8 µM
same,GI50,SK-MEL-5 melanoma,2.27 µM
same,TGI,SK-MEL-5 melanoma,5.74 µM
same,GI50,OVCAR-3 ovarian,4.38 µM
same,TGI,OVCAR-3 ovarian,> 100 µM
same,GI50,HS 578T breast,4.67 µM
same,TGI,HS 578T breast,34.7 µM
same,GI50,M14 melanoma,5.31 µM
same,TGI,M14 melanoma,22.4 µM
same,GI50,U251 CNS,4.07 µM
same,TGI,U251 CNS,28.5 µM
same,GI50,UO-31 renal,2.93 µM
same,TGI,UO-31 renal,11.7 µM
same,GI50,HCT-15 colon,4.13 µM
same,TGI,HCT-15 colon,16.3 µM
same,GI50,HOP-62 NSCLC,11.2 µM
same,TGI,HOP-62 NSCLC,44.9 µM
same,GI50,OVCAR-8 ovarian,4.9 µM
same,TGI,OVCAR-8 ovarian,> 100 µM
same,GI50,NCI-H226 lung,2.55 µM
same,TGI,NCI-H226 lung,10.4 µM
same,GI50,SR leukemia,3.56 µM
same,TGI,SR leukemia,30.9 µM
same,GI50,SNB-19 CNS,3.52 µM
same,TGI,SNB-19 CNS,23.1 µM
same,GI50,MALME-3M melanoma,2.97 µM
same,TGI,MALME-3M melanoma,15.1 µM
same,GI50,HL-60(TB) leukemia,4.66 µM
same,TGI,HL-60(TB) leukemia,38.3 µM
same,GI50,SK-MEL-28 melanoma,3.93 µM
same,TGI,SK-MEL-28 melanoma,20.6 µM
same,GI50,EKVX NSCLC,3.94 µM
same,TGI,EKVX NSCLC,30 µM
same,GI50,OVCAR-4 ovarian,3.44 µM
same,TGI,OVCAR-4 ovarian,> 100 µM
same,GI50,NCI-H23 lung,2.71 µM
same,TGI,NCI-H23 lung,9.84 µM
same,GI50,TK-10 renal,2.96 µM
same,TGI,TK-10 renal,12.8 µM
same,GI50,CCRF-CEM leukemia,6.19 µM
same,TGI,CCRF-CEM leukemia,> 100 µM
same,GI50,KM12 colon,4.61 µM
same,TGI,KM12 colon,32.3 µM
same,GI50,HOP-92 NSCLC,2.54 µM
same,TGI,HOP-92 NSCLC,8.4 µM
same,GI50,MDA-MB-435,4.08 µM
same,TGI,MDA-MB-435,23.4 µM
same,GI50,HT29 colon,29.8 µM
same,TGI,HT29 colon,> 100 µM
same,GI50,786-0 renal,5.92 µM
same,TGI,786-0 renal,26.6 µM
same,GI50,ACHN renal,4.43 µM
same,TGI,ACHN renal,51.1 µM
same,GI50,RXF 393 renal,2.55 µM
same,TGI,RXF 393 renal,9.78 µM
same,GI50,RPMI-8226 leukemia,3.9 µM
same,TGI,RPMI-8226 leukemia,> 100 µM
same,GI50,OVCAR-5 ovarian,20.4 µM
same,TGI,OVCAR-5 ovarian,> 100 µM
same,GI50,UACC-62 melanoma,2.49 µM
same,TGI,UACC-62 melanoma,7.59 µM
same,GI50,SF-268 CNS,7.14 µM
same,TGI,SF-268 CNS,> 100 µM
same,GI50,NCI-H522 lung,2.34 µM
same,TGI,NCI-H522 lung,7.86 µM
same,GI50,SF-539 CNS,4.61 µM
same,TGI,SF-539 CNS,19 µM
same,GI50,PC-3 prostate,4.31 µM
same,TGI,PC-3 prostate,56.8 µM
same,GI50,CAKI-1 renal,4.5 µM
same,TGI,CAKI-1 renal,27.9 µM
same,GI50,COLO 205 colon,18.3 µM
same,TGI,COLO 205 colon,36.2 µM
same,GI50,A498 renal,5.22 µM
same,TGI,A498 renal,33.8 µM
same,GI50,SK-MEL-2 melanoma,3.1 µM
same,TGI,SK-MEL-2 melanoma,12.2 µM
